Laboratory results from patent publication US20100010046A1, “PHARMACEUTICAL FORMULATION FOR PARENTERAL ADMINISTRATION” (IRONWOOD PHARMACEUTICALS, INC., priority 2006, published 2010).

Tests used:
[1] = system: indomethacin-induced rat gastric ulcers; settings: subcutaneous, 50 μg/kg; cited from earlier work
[2] = room temperature; presence of water (U.S. Pat. No. 5,324,746); cited from earlier work
[3] = system: isolated canine parietal cell preparation; test: Inhibition of histamine-stimulated acid secretion in an isolated canine parietal cell preparation; assay type: cell-based; settings: Canis lupus familiaris, read-out: IC50 (nM), concentration required to inhibit 50% of maximal histamine-stimulated acid secretion
Text: Concentrations required to inhibit 50% of maximal histamine-stimulated acid secretion in an isolated canine parietal cell preparation is shown in Table 1 below.

IC50 [3]: 3.8 nM
Structure (SMILES): CCCCC(C)(O)C/C=C/[C@H]1C(O)CC(=O)[C@@H]1CCCCCCC(=O)OC (stereo partly drawn) [Misoprostol]
reduced lesion formulation [1]: up to 60% | chemical stability [2]: chemically unstable at room temperature and breaks down in the presence of water
